Data on 2 compounds can be found in patent US20080188493A1 (priority 2005, published 2008).

The test system of one series is Pyrenophora teres. The experiment in a line: Activity against net blotch of barley caused by Pyrenophora teres, 1 day protective application (comparative test). The class given is in vivo. The following applies: potted barley seedlings, sprayed 24 h before inoculation; visual % infection of entire leaf area after 6 days; concentration not given; untreated 90%. The procedure: The active compounds were prepared as a stock solution comprising 25 mg of active compound which was made up to 10 ml using a mixture of acetone and/or DMSO and the emulsifier Uniperol® EL (wetting agent having emulsifying and dispersing action based on ethoxylated alkylphenols) in a volume ratio of solvent/emulsifier of 99/1. The mixture was then made up to 100 ml with water. This stock solution was diluted with the solvent/emulsifier/water mixture described to the concentration of active compound stated below.
Comparative test—Activity against net blotch of barley caused by Pyrenophora teres, 1 day protective application
Leaves of potted barley seedlings were sprayed to runoff point with an aqueous suspension having the concentration of active compound stated below. 24 hours after the spray coating had dried on, the test plants were inoculated with an aqueous spore suspension of Pyrenophora [syn. Drechslera] teres, the net blotch pathogen. The test plants were then placed in a greenhouse at temperatures between 20 and 24° C. and 95 to 100% relative atmospheric humidity. After 6 days, the extent of the development of the disease was determined visually in % infection of the entire leaf area.

In the case of `C=CCCCCc1c(C)nc2cc(C)nn2c1N` [I-1], the melting point (commonly the temperature of the solid-liquid transition) was 178 to 179 °C. In addition, in the series with Pyrenophora teres, the Infection in % worked out at 40%.

In turn, `CCCCCCc1c(C)nc2cc(C)nn2c1N` [compound 30, reference compound] registered an Infection in % in the series on Pyrenophora teres of 90%.
